The values below are quoted from earlier work in patent US9610269B2, “Method of treating a disease condition susceptible to baclofen therapy” (SUN PHARMA ADVANCED RESEARCH COMPANY LTD., priority 2010, dated 2017).

The conditions of data set [1]: at the actual pH values.
For data set [2] the following is noted: in vivo.

On to `NCC(CC(=O)O)c1ccc(Cl)cc1` (stereo not shown) [baclofen, 4-amino-3-(p-chlorophenyl) butyric acid], for which the “lipophilicity of the drug” value in data set [1] is “negligible”. In addition, in data set [2], the Plasma elimination half-life result is given as “approximately 3.5 hours”, the “fraction metabolized in the liver” value is given as 15% and the “serum concentration considered an effective concentration” value is ≥ 80 ng/mL.
